Measured values as given in US5462861A, “Method for improving enzyme activities with noble gases” (American Air Liquide, Chicago Research Center, priority 1993, dated 1995).

Assays:
citrate synthetase = molecular target: T1, citrate synthetase (Homo sapiens, UniProt O75390); test: Citrate synthetase complex reaction under gas; assay type: biochemical; conditions: for effect on citrate synthase: FIG. 33
T1 sequence (O75390 28-466): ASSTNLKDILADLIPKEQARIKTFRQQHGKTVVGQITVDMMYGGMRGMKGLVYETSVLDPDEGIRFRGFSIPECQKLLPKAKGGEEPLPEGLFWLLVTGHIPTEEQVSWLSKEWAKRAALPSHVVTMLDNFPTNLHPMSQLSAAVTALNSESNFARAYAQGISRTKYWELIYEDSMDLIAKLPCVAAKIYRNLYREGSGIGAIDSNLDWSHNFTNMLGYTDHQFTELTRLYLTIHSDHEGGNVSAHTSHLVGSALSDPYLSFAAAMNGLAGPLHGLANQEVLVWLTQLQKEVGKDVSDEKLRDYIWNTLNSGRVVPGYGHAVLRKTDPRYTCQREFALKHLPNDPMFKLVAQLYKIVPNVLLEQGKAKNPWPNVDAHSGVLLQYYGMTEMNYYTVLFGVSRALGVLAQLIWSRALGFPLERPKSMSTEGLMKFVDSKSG
Procedure: (§1) Solution preparation: Optimized w/v solutions are prepared by diluting the enzyme (units/ml) and the substrate (μg/ml) in appropriate buffer (optimized pH and molarity for enzymes). The solutions are used for gas experiments at once to avoid loss of activity. Various enzyme and substrate concentrations and inhibitors may be employed. Physical parameters are varied as required.
(§2) Preparation of samples: Cuvets are filled with 2 ml of substrate solution by means of a gas-tight syringe. Gas-tight serum vials are filled with enzyme and solvent. Sufficient gas is consecutively bubbled in the cuvets and serum vials, with a 1-hr wait between injections to maximize equilibration of gas. All syringes and dead spaces are purged before filling with the appropriate gas. The amount of gas used has been measured sufficient to saturate the solution required.
(§3) Spectrophotometric time-drive, reaction rate, and kinetic analyses: cuvets and serum vials are saturated with gas 40 minutes before the run. A gas-filled syringe is used to retrieve 0.5 ml of enzyme solution to avoid air contact. The 0.5 ml syringe injections of enzyme are made simultaneously to effect a common starting time to for the samples. 7 gases (air, O2, N2, Ne, Ar, Kr, Xe) are run at various temperatures each (from 0° to 60° ). Changes in the rate or final equilibrium of the reaction versus ambient air are recorded. Comparison is also made with added oxygen, and with deoxygenation. Some samples are also prepared under pressure.
(§4) In a complete experiment, an enzyme at optimal pH and buffering salt concentration is reacted with 5 substrate concentrations in solution with noble gas at 1 atm. […] Controls are also run after evacuation of solution by vacuum. The reaction is monitored colorimetrically in a scanning spectrophotometer in real time, and the signals are treated mathematically to obtain rate and yield differences. Sample numbers are constant and sufficient to ensure significance of results. All parameters are independently controlled and measured, and more complex experiments are occasionally carried out.

[1] = system: phenylalanine ammonia lyase; test: Phenylalanine ammonia lyase activity under gas; assay type: biochemical; conditions: for effect on phenylalanine ammonia lyase: head not printed; for effect on phenylalanine ammonia-lyase: FIG. 32
Procedure: as §1, §2, §3, §4

Acetyl S-CoA synthetase = Acetyl S-CoA synthetase activity under gas (coupled sequence or isolated reaction); assay type: biochemical; conditions: for Maximum observed enhancement / maximum observed inhibition: depending upon temperature
Procedure: as §1, §2, §3
Maximum observed enhancement vs maximum observed inhibition (depending upon temperature):
In a coupled complex reaction sequence including hydrolytic enzymes: […]

Tyrosinase = test: High pressure experiments, tyrosinase; assay type: biochemical, Mushroom; conditions: for % inhibition of gases relative to 1 atmosphere of air: value before the slash (not pressurized)
Procedure: Shake the enzyme in each cylinder for several minutes and then remove a 5 ml sample for Control B and Control C. Remove cylinders to the dock, gassing with the appropriate gas; bring pressure slowly up to 30.6 atm. Let sit at the required pressure for 60 minutes. Slowly depressurize to 2 psi before bringing into the lab. Bring the cylinders back to the dock and repressurize to 100 atm with the appropriate gas. Let sit at the required pressure for 60 minutes. Slowly depressurize to 2 psi before bringing into the lab. […] Shake the enzyme in each cylinder for several minutes and then remove a 5 ml sample for Control B and Control C. Remove cylinders to the dock, gassing with the appropriate gas. Remove headspace/residual gas by pressurizing and depressurizing the gas cylinder several times. Bring pressure slowly up to 30.6 atm. Let sit at the required pressure for 60 minutes. Slowly depressurize to 40 psi before bringing into the lab. Enzyme injection: […] The cylinders were pressurized as described above. The cylinder pressure was released and the cylinders repressurized 10 times to remove O2 from the cylinders. Final Pressurization: […] Cylinder 3 was pressurized to 1 atm with Xe then pressurized to 30.6 atm with N2 to conserve Xe. Time Table: […] Due to the fact that on 4/25/91 the spectrophotometers were being used at 5° C. for a different experiment the decision was made to sample the cylinders at the end of the day when the spectrophotometer was available to be put at 25° C. Sampling took place 28 hours after pressurization. A spectro/gas run was immediately preformed on these samples. Apr. 25, 1991 Repressurization: Cylinders were repressurized at 6:00 pm on 4/25/91 to 100 atm. These cylinders will be sampled at 2:00 pm Apr. 26, 1991 (20 hrs after pressurization). Cuvettes were filled for the 2 atm experiments for both enzymes. Each cuvette was gassed 10×10 cc with the appropriate gas and refrigerated for 15 minutes prior to running. Serum vials were filled with 5 cc of the corresponding enzyme and gassed with 10×10 cc of the appropriate gas prior to running. The spectrophotometers were set up such that a continuous flow of each gas could be delivered to each spectro at all times. A 100 […] gauge was installed to read the cuvette pressure and 2 on/off valves were installed so that the reference cell could be pressurized during the second replicate. A ball valve was installed between the cylinder/house line and the gauge so that gas flow could be controlled directly at the spectrophotometers. A check valve was placed in each line to ensure that a back pressure would not cause contamination of the house lines or the gas cylinders. The cuvettes retained the 2 needles during the entire run. One of the needles was attached to the gas line while the second was used for enzyme introduction and then plugged. Due to the bulky nature of the assembly it was impossible to use the installed doors of the spectrophotometers therefore they were removed. A 4-layer thick black felt cover was prepared for each spectro to minimize the amount of light entering the system. While the cuvette was equilibrating to temperature in the spectrophotometer both needles remained in the cuvette with 10 cc syringes still attached. Prior to enzyme introduction one of the syringes was removed while the gas line was attached to the needle. A small flow of gas run through the line while this was done to ensure that there was no oxygen contamination. The needles remained above the liquid level. The second syringe was removed to allow constant flow through the cuvette. The enzyme was injected through the second needle using a 1 cc syringe. The needle was then plugged, the cuvette pressurized and the run begun. A nonpressurized gas run using all four gases was done for each enzyme. Each cuvette was gassed with 10×10 cc of the corresponding gas and refrigerated for 15 minutes. The 2 needles used for gassing the cuvettes were removed when the cuvettes were placed into the spectrophotometer. […]

oxidoreductase enzymes = test: Oxidoreductases, effects for the class; assay type: biochemical; conditions: for Maxima for class: effect: Class I oxidoreductases, minus = inhibition
Procedure: as §1, §2, §3, §4

[2] = optimized enzyme concentration, first value column
[3] = optimized enzyme concentration, second value column
[4] = optimized enzyme concentration, third value column
[5] = suboptimal enzyme concen., first value column
[6] = suboptimal enzyme concen., second value column
[7] = suboptimal enzyme concen., third value column
[8] = coupled complex reaction sequence including hydrolytic enzymes
[9] = 30.6 atm (24 hr), Xe = Xe 1 atm/N2 to pressure
[10] = 100 atm (~24 hr), Xe = Xe 1 atm/N2 to pressure

[Ar] [Ar, argon]
effect on citrate synthetase complex reaction (citrate synthetase; 10° C.): +25
effect on citrate synthetase complex reaction (citrate synthetase; 25° C.): -10
effect on citrate synthetase complex reaction (citrate synthetase; 35° C.): -15
effect on citrate synthase (citrate synthetase): inhibition
effect on phenylalanine ammonia lyase [1, 2]: +6
effect on phenylalanine ammonia lyase [1, 3]: +1
effect on phenylalanine ammonia lyase [1, 4]: +3
effect on phenylalanine ammonia lyase [1, 5]: -1
effect on phenylalanine ammonia lyase [1, 6]: +1
effect on phenylalanine ammonia lyase [1, 7]: +6.5
Maximum observed enhancement (Acetyl S-CoA synthetase; [8]): +67.7%
maximum observed inhibition (Acetyl S-CoA synthetase; [8]): +34.6%
Maximum observed enhancement (Acetyl S-CoA synthetase; isolated reaction): +75.4%
maximum observed inhibition (Acetyl S-CoA synthetase; isolated reaction): -27.6%
inhibition relative to 1 atmosphere after pressurization (Tyrosinase; 2 atm): -90.4%
% inhibition of gases relative to 1 atmosphere of air (Tyrosinase; 2 atm experiment): -76.9%
inhibition relative to 1 atmosphere after pressurization (Tyrosinase; 3 atm): -72.1%
% inhibition of gases relative to 1 atmosphere of air (Tyrosinase; 3 atm experiment): -55.8%
effect on oxidoreductase reactions (oxidoreductase enzymes): very active at low temperatures
Maxima for class: effect (oxidoreductase enzymes): -91%

N#N [N2, nitrogen, reference compound]
effect on citrate synthetase complex reaction (citrate synthetase; 10° C.): -6
effect on citrate synthetase complex reaction (citrate synthetase; 25° C.): -25
effect on citrate synthetase complex reaction (citrate synthetase; 35° C.): -17
effect on phenylalanine ammonia-lyase [1]: enhancement
effect on phenylalanine ammonia lyase [1, 2]: +19
effect on phenylalanine ammonia lyase [1, 3]: 0
effect on phenylalanine ammonia lyase [1, 4]: +6
effect on phenylalanine ammonia lyase [1, 5]: 0
effect on phenylalanine ammonia lyase [1, 6]: 0
effect on phenylalanine ammonia lyase [1, 7]: +12
effect on acetyl S-CoA synthetase compared with noble gases (Acetyl S-CoA synthetase): much lesser effect than noble gases except at superoptimal temperatures
Maximum observed enhancement (Acetyl S-CoA synthetase; [8]): +31.2%
maximum observed inhibition (Acetyl S-CoA synthetase; [8]): -39.5%
Maximum observed enhancement (Acetyl S-CoA synthetase; isolated reaction): +35.7%
maximum observed inhibition (Acetyl S-CoA synthetase; isolated reaction): -118.7%
inhibition relative to 1 atmosphere after pressurization (Tyrosinase; 2 atm): -88.5%
% inhibition of gases relative to 1 atmosphere of air (Tyrosinase; 2 atm experiment): -71.2%
inhibition relative to 1 atmosphere after pressurization (Tyrosinase; 3 atm): -82.6%
% inhibition of gases relative to 1 atmosphere of air (Tyrosinase; 3 atm experiment): -72.1%
effect on tyrosinase (Tyrosinase; 30 atm. pressure, FIG. 39): inhibitory effect
inhibition relative to 1 atmosphere after pressurization (Tyrosinase; 30.6 atm (1 hr)): -15.4%
inhibition relative to 1 atmosphere after pressurization (Tyrosinase; [9]): -78.8%
inhibition relative to 1 atmosphere after pressurization (Tyrosinase; 100 atm (1 hr)): -20.0%
inhibition relative to 1 atmosphere after pressurization (Tyrosinase; [10]): -84.7%
effect on tyrosinase (Tyrosinase; 100 atm. pressure, FIG. 40): inhibitory effect

[Ne] [Ne, neon]
effect on citrate synthetase complex reaction (citrate synthetase; 10° C.): +11
effect on citrate synthetase complex reaction (citrate synthetase; 25° C.): +9
effect on citrate synthetase complex reaction (citrate synthetase; 35° C.): -14
effect on phenylalanine ammonia-lyase [1]: enhancement
effect on phenylalanine ammonia lyase [1, 2]: -2
effect on phenylalanine ammonia lyase [1, 3]: +6
effect on phenylalanine ammonia lyase [1, 4]: -6
effect on phenylalanine ammonia lyase [1, 5]: +15
effect on phenylalanine ammonia lyase [1, 6]: 0
effect on phenylalanine ammonia lyase [1, 7]: +6
Maximum observed enhancement (Acetyl S-CoA synthetase; [8]): +2.3%
maximum observed inhibition (Acetyl S-CoA synthetase; [8]): -21.9%
inhibition relative to 1 atmosphere after pressurization (Tyrosinase; 2 atm): -84.5%
% inhibition of gases relative to 1 atmosphere of air (Tyrosinase; 2 atm experiment): -69.0%
Maxima for class: effect (oxidoreductase enzymes): -85%

[Xe] [Xe, xenon]
effect on citrate synthetase complex reaction (citrate synthetase; 10° C.): +18
effect on citrate synthetase complex reaction (citrate synthetase; 25° C.): 0
effect on citrate synthetase complex reaction (citrate synthetase; 35° C.): +32
effect on citrate synthase (citrate synthetase): enhancement
effect on phenylalanine ammonia lyase [1, 2]: +18
effect on phenylalanine ammonia lyase [1, 3]: +3
effect on phenylalanine ammonia lyase [1, 4]: +5
effect on phenylalanine ammonia lyase [1, 5]: +14
effect on phenylalanine ammonia lyase [1, 6]: +8
effect on phenylalanine ammonia lyase [1, 7]: +11
Maximum observed enhancement (Acetyl S-CoA synthetase; [8]): +18.3%
maximum observed inhibition (Acetyl S-CoA synthetase; [8]): -25.0%
Maximum observed enhancement (Acetyl S-CoA synthetase; isolated reaction): +15.4%
maximum observed inhibition (Acetyl S-CoA synthetase; isolated reaction): -39.5%
inhibition relative to 1 atmosphere after pressurization (Tyrosinase; 2 atm): -86.2%
% inhibition of gases relative to 1 atmosphere of air (Tyrosinase; 2 atm experiment): -76.0%
effect on tyrosinase (Tyrosinase; 30 atm. pressure, FIG. 39): inhibitory effect
inhibition relative to 1 atmosphere after pressurization (Tyrosinase; [9]): -87.0%
inhibition relative to 1 atmosphere after pressurization (Tyrosinase; [10]): -85.7%
effect on tyrosinase (Tyrosinase; 100 atm. pressure, FIG. 40): inhibitory effect
change in relative effect (Tyrosinase; effect of pressure): 75%
effect on oxidoreductase reactions (oxidoreductase enzymes): largest effect on the rate
Maxima for class: effect (oxidoreductase enzymes): -95%

[Kr] [Kr, krypton]
effect on citrate synthetase complex reaction (citrate synthetase; 10° C.): +37
effect on citrate synthetase complex reaction (citrate synthetase; 25° C.): +6
effect on citrate synthetase complex reaction (citrate synthetase; 35° C.): +32
effect on citrate synthase (citrate synthetase): enhancement
effect on phenylalanine ammonia lyase [1, 2]: +7
effect on phenylalanine ammonia lyase [1, 3]: +4
effect on phenylalanine ammonia lyase [1, 4]: +4
effect on phenylalanine ammonia lyase [1, 5]: +3
effect on phenylalanine ammonia lyase [1, 6]: +18
effect on phenylalanine ammonia lyase [1, 7]: +14
effect on S-acetyl CoA synthetase (Acetyl S-CoA synthetase; 25° C., FIG. 36): enhancement
Maximum observed enhancement (Acetyl S-CoA synthetase; [8]): +16.1%
maximum observed inhibition (Acetyl S-CoA synthetase; [8]): -34.6%
Maximum observed enhancement (Acetyl S-CoA synthetase; isolated reaction): +5.0%
maximum observed inhibition (Acetyl S-CoA synthetase; isolated reaction): -52.6%
inhibition relative to 1 atmosphere after pressurization (Tyrosinase; 2 atm): -93.1%
% inhibition of gases relative to 1 atmosphere of air (Tyrosinase; 2 atm experiment): -84.5%
effect on oxidoreductase reactions (oxidoreductase enzymes): somewhat lesser effect than xenon
Maxima for class: effect (oxidoreductase enzymes): -91%
